According to patent publication US11446286B1 (KING FAISAL UNIVERSITY, priority 2022, dated 2022):
Values after ≈ are worked out from the molar mass of the structure shown.

Key:
[1] = tested on: C. albicans systemic infection; test: Systemic candidiasis mouse model; assay type: in vivo, mice; settings: for lung histopathology (H&E): vs non-treated infected mice; for serum levels of ALT, AST, uric acid, and creatinine: systemic candidiasis, day 7, compared with infected nontreated group (combination: also vs noninfected control)
Description: (§1) Four-week-old mice were obtained from Kafrelshikh university animal sourcing. Food and water were given ad libitum. The mice were handled according to the instructions and regulations of the ethics committee.
(§2) To help in the induction of fungal infection, mice were immunocompromised by Endoxan® (cyclophosphamide), injected i.v. at a dose rate of 100 mg/kg. The injection of cyclophosphamide was at three and one days before infection. Systemic candidiasis and aspergillosis were induced by intravenous injection of 0.2 ml of each cell suspension into the tail vein using 1-ml syringe and a 27-G, ½-in. needle. The C. albicans cells and Aspergillus conidia were obtained as described above. After plating, the cells were suspended in sterile saline. Each mouse received 5×10^4 blastospores. All drugs were given at a dose rate of 5 mg/kg via the oral route suspended in methylcellulose. […] Treatment was continued daily for seven days. On the seventh day, the mice were sacrificed, and blood and tissue samples were collected. Tissue samples from liver, kidney, lungs, and heart were stored in 10% formalin and fixed for histopathological and immunohistochemical examination.
(§3) Standard histopathological sections stained with hematoxylin and eosin were performed. Immunohistochemistry was performed following the instructions of the antibodies manufacturer (Theiino Scientific, Waltman, MA, USA). The antibodies comprised CD45 and CXCR4.
Serum samples from the systemic candidiasis experiments discussed above were analyzed using known techniques to detect serum levels of ALT, AST, uric acid, and creatinine.

[2] = tested on: A. fumigatus systemic infection; test: Systemic aspergillosis mouse model; assay type: in vivo, mice; settings: for liver histopathology (H&E): vs infected animals; for heart histopathology (H&E): vs infected group; for serum levels of ALT, AST, uric acid, and creatinine: systemic A. fumigatus infection, day 7, compared with infected nontreated group (combination: also vs noninfected control)
Description: as §1, §2, §3
Serum samples from the systemic Aspergillus experiments discussed above were analyzed using known techniques to detect serum levels of ALT, AST, uric acid, and creatinine.

[3] = tested on: C. albicans vaginal infection; test: Vaginal candidiasis mouse model; assay type: in vivo, mice; settings: for CD45-positive cells in vaginal tissue (IHC, semi-quantitative) / vaginal histology (H&E): topical into the vagina 5 mg/kg daily for seven days; for CXCR4 expression in the vaginal epithelial mucosa (IHC): treated for 7 days, vs C. albicans infected Model animals
Description: Standard histopathological sections stained with hematoxylin and eosin were performed. Immunohistochemistry was performed following the instructions of the antibodies manufacturer (Theiino Scientific, Waltman, MA, USA). The antibodies comprised CD45 and CXCR4. Mice vagina infected with C. albicans was used to evaluate the anticandidal actions of dabigatran. To help in induction of vaginal candidiasis, mice were immunocompromised by injection of 0.1 mg of β-estradiol in 10 μl of sesame oil 72 h and 24 h before vaginal infection for induction of estrus. Infection was done during the estrus phase by intravaginal dropping of the Candida blastoconidia. Each mouse received 3×10^6 blastospores into the vaginal cavity. Uninoculated control mice (the control group) were injected intravaginally with sterile saline. […] All drugs were given topically into the vagina at a dose rate of 5 mg/kg daily for seven days post-infection. On the seventh day, the mice were sacrificed, and blood and vaginal samples were collected. At ×400 magnification, five visual random fields were analyzed. An adopted procedure was used to assess the degree of infection and inflammation (Zhang, J. E., et al., “Feasibility of histological scoring and colony count for evaluating infective severity in mouse vaginal candidiasis,” Experimental Animals, 62(3): pp. 205-10 (2013)). The average scores of five fields were recorded.

31 fungal strains = test: In vitro antifungal assays, all isolates; assay type: cell-based; settings: over the fungal strains tested
Description: (§4) In vitro studies were performed including a total of 31 fungal strains. The strains were obtained from the American Type Culture Collection (ATCC) or were isolated locally and provided by the fungal research centers at Alazhar and Assiut universities, Egypt. Dabigatran's antifungal activity was tested against 31 fungal strains, as previously described. (Johnson, T. R. and Case, C. L., “Laboratory experiments in microbiology” Pearson/Benjamin Cummings (2004)) The in vitro studies included a total of 31 fungal strains. Fungal strains were separately grown in universal tubes with 20 ml of Sabouraud's dextrose broth for 3-7 days to create inocula for antifungal tests. Bioassays were carried out in 10 cm sterile Petri dishes containing 15 ml Sabouraud's dextrose agar medium and microbial suspension. Using a sterile cork borer, 5 mm diameter cavities were bored in the solidified agar (3 cavities/plate) after the media had hardened. […] Controls were prepared using DMSO and fluconazole. Candida cultures were incubated for 72 hours at 27° C., while other fungal cultures were incubated for up to seven days.

[4] = tested on: Aspergillus furnigatus (RCMB 002008); test: In vitro antifungal assay (agar well); assay type: cell-based, Aspergillus fumigatus
Description: as §4

[5] = tested on: Aspergillus flavus AUMC No. 1276; test: In vitro antifungal assay (agar well); assay type: cell-based
Description: as §4

[6] = tested on: Aspergillus flavus RCMB 002002; test: In vitro antifungal assay (agar well); assay type: cell-based
Description: as §4

[7] = tested on: Aspergillus fumigatus AUMC No. 14358; test: In vitro antifungal assay (agar well); assay type: cell-based
Description: as §4

[8] = tested on: Aspergillus nidulans AUMC No. 14333; test: In vitro antifungal assay (agar well); assay type: cell-based
Description: as §4

[9] = tested on: Aspergillus niger AUMC No. 14408; test: In vitro antifungal assay (agar well); assay type: cell-based
Description: as §4

[10] = tested on: Aspergillus terreus AUMC No. 14389; test: In vitro antifungal assay (agar well); assay type: cell-based
Description: as §4

[11] = tested on: Aspergillus ustus AUMC No. 3605; test: In vitro antifungal assay (agar well); assay type: cell-based
Description: as §4

[12] = tested on: Candida albicans RCMB 005003 (1) ATCC 10231; test: In vitro antifungal assay (agar well); assay type: cell-based; settings: 72 hours at 27° C.
Description: as §4

[13] = tested on: Candida alibicans AUMC No. 9160; test: In vitro antifungal assay (agar well); assay type: cell-based; settings: 72 hours at 27° C.
Description: as §4

[14] = tested on: Candida glabrata AUMC No. 9166; test: In vitro antifungal assay (agar well); assay type: cell-based; settings: 72 hours at 27° C.
Description: as §4

[15] = tested on: Candida lipolytica RCMB 005007; test: In vitro antifungal assay (agar well); assay type: cell-based; settings: 72 hours at 27° C.
Description: as §4

[16] = tested on: Candida tropicalis AUMC No. 9158; test: In vitro antifungal assay (agar well); assay type: cell-based; settings: 72 hours at 27° C.
Description: as §4

[17] = tested on: Candida tropicalis RCMB 005004; test: In vitro antifungal assay (agar well); assay type: cell-based; settings: 72 hours at 27° C.
Description: as §4

[18] = tested on: Cryptococcus neoformans AUMC No. 2795; test: In vitro antifungal assay (agar well); assay type: cell-based
Description: as §4

[19] = tested on: Cryptococcus neoformas RCMB 0049001; test: In vitro antifungal assay (agar well); assay type: cell-based
Description: as §4

[20] = tested on: Fusarium moniliforme RCMB 001006; test: In vitro antifungal assay (agar well); assay type: cell-based
Description: as §4

[21] = tested on: Microsporum canis AUMC No. 14454; test: In vitro antifungal assay (agar well); assay type: cell-based
Description: as §4

[22] = tested on: Mucor circillelloides AUMC No. 3704; test: In vitro antifungal assay (agar well); assay type: cell-based
Description: as §4

[23] = tested on: Penicillium aurantiogriseum IMI 89372; test: In vitro antifungal assay (agar well); assay type: cell-based
Description: as §4

[24] = tested on: Penicillium italicum RCMB 001018 (1) IMI 193019; test: In vitro antifungal assay (agar well); assay type: cell-based
Description: as §4

[25] = tested on: Penicillium marneffei AUMC No. 9370; test: In vitro antifungal assay (agar well); assay type: cell-based
Description: as §4

[26] = tested on: Penicllium marneffeii RCMB 001034; test: In vitro antifungal assay (agar well); assay type: cell-based
Description: as §4

[27] = tested on: Sporotlirix schenckii AUMC No. 2739; test: In vitro antifungal assay (agar well); assay type: cell-based
Description: as §4

[28] = tested on: Trichophyton mentagrophytes AUMC No. 14492; test: In vitro antifungal assay (agar well); assay type: cell-based
Description: as §4

[29] = tested on: Trichophyton rubrum AUMC No. 1804; test: In vitro antifungal assay (agar well); assay type: cell-based
Description: as §4

[30] = tested on: Geotricurn candidum RCMB 026008; test: In vitro antifungal assay (agar well); assay type: cell-based, Geotricum candidum
Description: as §4

[31] = tested on: Penicillium expansurn RCMB 001001 IMI28169; test: In vitro antifungal assay (agar well); assay type: cell-based, Penicillium expansum
Description: as §4

[32] = tested on: Syncephalastrurn racemosum RCMB 016001; test: In vitro antifungal assay (agar well); assay type: cell-based, Syncephalastrum racemosum
Description: as §4

[33] = immunocompromised mice, C. albicans i.v., 5 mg/kg oral daily for seven days
[34] = immunocompromised mice, A. fumigatus i.v., 5 mg/kg oral daily for seven days

Compound: OC(Cn1cncn1)(Cn1cncn1)c1ccc(F)cc1F [fluconazole]
- liver histopathology (H&E) [1, 33]: moderate inflammatory cell infiltration in the perivascular regions, mild sinusoidal congestion, and few apoptotic cells
- lung histopathology (H&E) [1, 33]: slightly ameliorated the lung damage
- serum levels of ALT, AST, uric acid, and creatinine [1]: significant decrease in ALT levels only
- liver histopathology (H&E) [2, 34]: Comparable histopathological injuries
- heart histopathology (H&E) [2, 34]: comparable
- serum levels of ALT, AST, uric acid, and creatinine [2]: significant decrease in all markers, except creatinine
- CD45-positive cells in vaginal tissue (IHC, semi-quantitative) [3]: Mild to moderate CD45-positive cells spread across the submucosa
- vaginal histology (H&E) [3]: modest sub-epithelial inflammatory reaction
- CXCR4 expression in the vaginal epithelial mucosa (IHC) [3]: significant decrease

Compound: CCCCCCOC(=O)NC(=N)c1ccc(NCc2nc3cc(C(=O)N(CCC(=O)OCC)c4ccccn4)ccc3n2C)cc1 [Dabigatran etexilate]
- range of MIC values (31 fungal strains): 8 to 256 µg/mL
- MIC [4]: 64 µg/mL (≈ 102 µM)
- MIC [5]: 64 µg/mL (≈ 102 µM)
- MIC [6]: 128 µg/mL (≈ 204 µM)
- MIC [7]: 128 µg/mL (≈ 204 µM)
- MIC [8]: 64 µg/mL (≈ 102 µM)
- MIC [9]: 128 µg/mL (≈ 204 µM)
- MIC [10]: 128 µg/mL (≈ 204 µM)
- MIC [11]: 64 µg/mL (≈ 102 µM)
- MIC [12]: 16 µg/mL (≈ 25.5 µM)
- MIC [13]: 32 µg/mL (≈ 51 µM)
- MIC [14]: 32 µg/mL (≈ 51 µM)
- MIC [15]: 16 µg/mL (≈ 25.5 µM)
- MIC [16]: 128 µg/mL (≈ 204 µM)
- MIC [17]: 128 µg/mL (≈ 204 µM)
- MIC [18]: 32 µg/mL (≈ 51 µM)
- MIC [19]: 16 µg/mL (≈ 25.5 µM)
- MIC [20]: 16 µg/mL (≈ 25.5 µM)
- MIC [21]: 128 µg/mL (≈ 204 µM)
- MIC [22]: 64 µg/mL (≈ 102 µM)
- MIC [23]: 32 µg/mL (≈ 51 µM)
- MIC [24]: 64 µg/mL (≈ 102 µM)
- MIC [25]: 64 µg/mL (≈ 102 µM)
- MIC [26]: 256 µg/mL (≈ 408 µM)
- MIC [27]: 16 µg/mL (≈ 25.5 µM)
- MIC [28]: 32 µg/mL (≈ 51 µM)
- MIC [29]: 32 µg/mL (≈ 51 µM)
- MIC [30]: 32 µg/mL (≈ 51 µM)
- MIC [31]: 128 µg/mL (≈ 204 µM)
- MIC [32]: 8 µg/mL (≈ 12.7 µM)
- kidney histopathology (H&E) [1, 33]: minor histological differences
- liver histopathology (H&E) [1, 33]: typical hepatic architecture with the presence of very few inflammatory cells, moderate degeneration, and no necrosis
- lung histopathology (H&E) [1, 33]: substantially improved
- protective effect against systemic C. albicans fungal infection ([1]; mice, 5 mg/kg oral daily for seven days): potent protective effect
- serum levels of ALT, AST, uric acid, and creatinine [1]: significantly decreased all serum markers
- kidney histopathology (H&E) [2, 34]: modest improvements
- lung histopathology (H&E), inflammation [2, 34]: decreased airspace areas because of red blood cells extravasation
- liver histopathology (H&E) [2, 34]: Comparable histopathological injuries
- heart histopathology (H&E) [2, 34]: comparable
- serum levels of ALT, AST, uric acid, and creatinine [2]: significantly decreased all serum markers
- CD4+ T cells in vaginal tissue (IHC, figure legends) ([3]; FIGS. 18 and 19, number / migration to lamina propria): dramatically decreased
- CD45-positive cells in vaginal tissue (IHC, semi-quantitative) [3]: Mild to moderate CD45-positive cells spread across the submucosa
- vaginal histology (H&E) [3]: considerable reduction in inflammation and injury to the vaginal epithelial mucosa
- CXCR4 expression in the vaginal epithelial mucosa (IHC) [3]: significant decrease
